What was measured:
[1] = system: MRSA (methicillin-resistant Staphylococcus aureus), ATCC 33592; experiment: Test Method B2 - Second Antimicrobial Efficacy Testing; assay type: cell-based; settings: 4 minutes
Procedure: A 0.22% wt/wt solution of CHG was prepared at a pH of 6. All pH adjustments were made using either gluconic acid or sodium hydroxide. Each of the above excipient solutions (5 mL) were mixed with an equal amount (5 mL) of CHG solution (0.22% wt/wt). The mixtures were allowed to stand for 15 minutes at ambient conditions, along with a control CHG solution. All of these samples were centrifuged at 14,000 g for 15 minutes. After centrifugation, supernatant was carefully transferred to a new vial and submitted for Antimicrobial Efficacy testing (TEST METHOD B2) and HPLC testing (TEST METHOD C2), see below.
For Test Method B2 the above Test Method B was followed, with the following changes: • 1. Bacteria was MRSA (methicillin-resistant Staphylococcus aureus), ATCC 33592, instead of P. aeruginosa. • 2. Inoculum level was approximately 6.2 logs, instead of 5.8 logs. • 3. Incubation time with MRSA was 4 minutes, instead of 2.5 minutes. • 4. Neutralizer was Neutralizing Buffer, instead of D/E Neutralizing Broth. • 5. Incubation of the Petrifilm plates was 38 hours, instead of 43 hours.

[2] = Evaluation of Precipitate Formation with CHG; assay type: physicochemical; settings: 1:1 mixture of excipient solution with 3.72% CHG, visual within 30 minutes; for Precipitation at Low pH: low pH per sample
Procedure: It is thought that some excipients (inactives) may form a CHG complex, which is visible as a precipitate. Thus, CHG which complexes with an excipient, forming a precipitate would not be available for antimicrobial efficacy. The purpose of the precipitation formation testing was to observe the potential of an excipient to form a precipitates with CHG under the following test conditions.
Sample excipient solutions were prepared with distilled water to various concentrations of excipients according to Tables 12-16, below. The pH of the solutions was then adjusted to both a low pH and a high pH using either gluconic acid or NaOH. […] After combining the CHG solution with the excipient solution, the vial of the mixture was briefly swirled to mix. The mixtures were visually assessed for the presence/formation of a precipitate within 30 minutes. The results are shown in Tables P1-P5, where “Y” means precipitate was observed; “N” means no precipitate was observed; “*1” means the mixture could not be tested because a gel-like mass was formed when adding gluconic acid to reduce the pH down; and “*2” means the mixture could not be tested because it started to thicken when adding NaOH to raise the pH.

SMILES	Log Reduction of MRSA ([1]; CHG 0.22 wt % control, excipient 0.0 wt %)	Precipitation at High pH [2]	Precipitation at Low pH [2]	Log Reduction of MRSA ([1]; supernatant of 0.50 wt % excipient solution mixed with equal amount of 0.22 wt % CHG)
N=C(NCCCCCCNC(=N)NC(=N)Nc1ccc(Cl)cc1)NC(=N)Nc1ccc(Cl)cc1.O=C(O)[C@H](O)[C@@H](O)[C@H](O)[C@H](O)CO.O=C(O)[C@H](O)[C@@H](O)[C@H](O)[C@H](O)CO [CHG Control, 1,11-hexamethylene bis[5-(p-chlorophenyl)biguanide]di-D-gluconate, reference compound]	3.0	–	–	–
O=C1NS(=O)(=O)c2ccccc21.[Na] [P1, Sodium Saccharin]	–	Y	Y	–
C/C=C/C=C/C(=O)[O-].[K+] [P4, Potassium Sorbate]	–	Y	–	–
O=C([O-])c1ccccc1.[Na+] [P7, Sodium Benzoate]	–	Y	Y	–
[Cl-].[K+] [P10, KCL]	–	Y	Y	–
[Cl-].[K+] [P11, KCL]	–	Y	Y	–
[Cl-].[K+] [P12, KCL]	–	N	N	–
[Cl-].[Na+] [P13, NaCl]	–	Y	Y	–
O=P(O)(O)O [P16, H3PO4]	–	Y	Y	–
O=C(O)CC(O)(CC(=O)O)C(=O)O [P19, Citric Acid]	–	Y	Y	–
O=C1[N-]S(=O)(=O)c2ccccc21.[Na+] [Sodium Saccharin, Benzoic Sulphimide Sodium Salt]	–	–	–	0.0

From patent US8460689B2, “Oral care method and kit” (3M Innovative Properties Company, priority 2009, dated 2013)
